Assay results reported in publication PMC6792352, “Limited Chemical Structural Diversity Found to Modulate Thyroid Hormone Receptor in the Tox21 Chemical Library” (Environmental Health Perspectives, 2019).
Structures can show the parent of a compound that is named as a salt. Positions of bridges follow the written chain, without caps; N, C: chain ends. Non-standard residues stand in square brackets, D forms with d. Residues, ends and D or L forms follow the SMILES beside them. Orn = NCCC[C@H](N)C(=O)O; Mpa = O=C(O)CCS

Assay: in vitro
Conditions: rat, gh3-tre-luc cells

Compound	CC50 at 24 h (AC50 (uM) modified / 1000) [µM]	other results
CC(C)(C)OC(=O)c1ncn2c1[C@@H]1CCCN1C(=O)c1c(Br)cccc1-2 [Bretazenil]		CC50 at 24 h (AC50 (uM) modified / 1000, Tox21_110001=Tox21_111947, viability, 1 nM T3 present, 24 h): > 50 µM
C=COCCOCCOCCOC=C [3,6,9,12-Tetraoxatetradeca-1,13-diene]	> 90	
NCCCC(N)(C(=O)O)C(F)F (stereo not drawn) [Eflornithine hydrochloride]	> 50	
Nc1c2c(nc3ccccc13)CCCC2 [1,2,3,4-Tetrahydro-9-acridinamine hydrochloride]	> 90	
CCCCCCCC(=O)OCC(COC(=O)CCCCCCC)OC(=O)CCCCCCC [Tricaprylin]	> 90	
CC(O)CN(CCN(CC(C)O)CC(C)O)CC(C)O (stereo not drawn) [N,N,N',N'-Tetrakis(2-Hydroxypropyl)ethylenediamine]	> 90	
CC(=O)O[C@@H]1C[C@@H]2CC[C@@]1(C)C2(C)C [Bornyl acetate]	> 90	
CC(C)OC=O [Isopropyl formate]	> 100	
CC1(C)C2(Cl)C(Cl)C(Cl)C(Cl)(C(Cl)Cl)C1(Cl)C2Cl (stereo not drawn) [Strobane]	21	
OC[C@H]1O[C@@H](Oc2ccc(O)cc2)[C@H](O)[C@@H](O)[C@@H]1O [Arbutin]	> 90	
COc1ccc(CNCC(O)COc2ccc3[nH]c(=O)ccc3c2)cc1OC (stereo not drawn) [Toborinone]	> 50	
C=C(C)C(=O)OCCO [2-Hydroxyethyl methacrylate]	> 90	
Clc1cccc(C(Cl)(Cl)Cl)n1 [Nitrapyrin]	> 90	
C=CC(=O)OCCOC(=O)CCC(=O)O [4-[2-(Acryloyloxy)ethoxy]-4-oxobutanoic acid]	> 90	
C=CC[N+]1([C@H]2C[C@H]3[C@@H]4CC[C@H]5C[C@H](O)[C@@H](N6CCOCC6)C[C@]5(C)[C@H]4CC[C@]3(C)[C@H]2OC(C)=O)CCCC1 [Rocuronium bromide]	> 50	
OC[C@H]1O[C@@H](OCCc2ccc(O)cc2)[C@H](O)[C@@H](O)[C@@H]1O [Salidroside]	> 50	
CC(C)(C)c1ccc(N)cc1 [4-tert-Butylaniline]	> 90	
OCc1ccccn1 [Piconol]	> 50	
Oc1c(Cl)cc(Cl)c2cccnc12 [Chloroxine]	5.91	
C=C(C)C(=O)NCCCN(C)C [N-[3-(Dimethylamino)propyl]methacrylamide]	> 90	
CN1CCc2cc(Cl)c(O)cc2[C@H]2c3ccccc3CC[C@@H]21 [ecopipam]	17.4	

Compound	CC50 at 24 h (AC50 (uM) modified / 1000) [µM]	other results
O=C(c1ccccc1)C1CCCCC1 [Cyclohexylphenylketone]	> 90	
S=C=S [Carbon disulfide]	> 90	
COc1ccc2c(c1)c(CC(=O)OCC(=O)O)c(C)n2C(=O)c1ccc(Cl)cc1 [Acemetacin]	> 50	
O=C(C(=O)c1ccc(Br)cc1)c1ccc(Br)cc1 [4,4'-Dibromobenzil]	> 30	
NC(=S)C(N)=S [Dithiooxamide]	> 90	
FC(F)OC(F)(F)C(F)Cl (stereo not drawn) [Enflurane]		CC50 at 24 h (AC50 (uM) modified / 1000, Tox21_110001=Tox21_112426, viability, 1 nM T3 present, 24 h): > 50 µM; CC50 at 24 h (AC50 (uM) modified / 1000, Tox21_110001=Tox21_200166, viability, 1 nM T3 present, 24 h): > 90 µM
O=CN1CCOCC1 [4-Morpholinecarboxaldehyde]	> 90	
N#CC(C#N)=Cc1cc(O)c(O)c(O)c1 [Tyrphostin 25]	28.5	
CCCCOC(=O)CCC(=O)OCCCC [Dibutyl butanedioate]		CC50 at 24 h (AC50 (uM) modified / 1000, Tox21_110001=Tox21_301514, viability, 1 nM T3 present, 24 h): > 90 µM
COc1cc(S(=O)(=O)Nc2ccccc2)c(OC)cc1N [4-Amino-2,5-dimethoxy-N-phenylbenzenesulfonamide]	> 90	
CCCCCCCCCCO[C@@H]1O[C@H](CO)[C@@H](O)[C@H](O)[C@H]1O [Decyl beta-D-glucopyranoside]	> 90	
CC(C)=CCC/C(C)=C/CC/C(C)=C/CC/C(C)=C/CC1=C(C)C(=O)c2ccccc2C1=O [Menatetrenone]	> 50	
CC(CN(C)C)CN1c2ccccc2CCc2ccccc21 (stereo not drawn) [Trimipramine maleate]	4.77	
O=C(Cl)c1ccc([N+](=O)[O-])cc1 [4-Nitrobenzoyl chloride]	> 90	
CCOc1ccc(C[C@H]2NC(=O)CCSSC[C@@H](C(=O)N3CCC[C@H]3C(=O)N[C@@H](CCCN)C(=O)NCC(N)=O)NC(=O)[C@H](CC(N)=O)NC(=O)[C@H]([C@@H](C)O)NC(=O)[C@H]([C@@H](C)CC)NC2=O)cc1 [Atosiban] ([Mpa][dY](Et)ITNCP[Orn]G-NH2; disulfide 1-6)	> 50	
CCCCCc1cc(O)c2c(c1)OC(C)(C)c1ccc(C)cc1-2 [Cannabinol]		CC50 at 24 h (AC50 (uM) modified / 1000, Tox21_110001=Tox21_113486, viability, 1 nM T3 present, 24 h): 13.4 µM
O=C(O)C(=O)Cc1ccccc1 [Phenylpyruvic acid]	> 90	
CCCCC=O [Pentanal]	> 90	
N#Cc1cscn1 [4-Thiazolecarbonitrile]	> 90	
CC(O)CN(C)C (stereo not drawn) [Dimepranol]	> 50	
Clc1cccc(Cl)c1N=C1NCCN1 [Clonidine hydrochloride]	> 90	

Compound	CC50 at 24 h (AC50 (uM) modified / 1000) [µM]	other results
CC(C)(C)NCC(O)c1cc(Cl)c(N)c(C(F)(F)F)c1 (stereo not drawn) [Mabuterol hydrochloride]	22.3	
CCCCCCOC(=O)c1cccnc1 [Hexyl nicotinate]	> 50	
O=C(O)c1c(Cl)ccc2cc(Cl)cnc12 [Quinclorac]	> 90	
O=C(OCc1ccccc1)c1cccnc1 [Benzyl nicotinate]	> 50	
Clc1cc(Cl)c(Cl)nc1Cl [2,3,5,6-Tetrachloropyridine]	> 90	
CCCCCO [1-Pentanol]	> 90	
CC(C)(c1ccccc1)c1ccccc1 [2,2-Diphenylpropane]	> 90	
COc1cnc(NS(=O)(=O)c2ccc(N)cc2)nc1 [Sulfameter]	> 20	
CCOC(=O)C1CC(=O)C(=C(O)C2CC2)C(=O)C1 (stereo not drawn) [Trinexapac-ethyl]	> 90	
CC1=C(C(=O)O)N2C(=O)[C@@H](NC(=O)[C@H](N)c3ccc(O)cc3)[C@H]2SC1 [Cefadroxil]	> 20	
CN(C)C1CCCCC1 [N,N-Dimethylcyclohexylamine]	> 90	
CCNc1cccc(C)c1 [N-Ethyl-3-methylaniline]	> 90	
Brc1ccc(Br)c(Br)c1 [1,2,4-Tribromobenzene]	> 90	
CC(C)(C)c1cccc(O)c1 [3-tert-Butylphenol]	> 90	
CC(=O)Oc1ccc(C)cc1 [4-Tolyl acetate]	> 90	
OC1CCCc2ccccc21 (stereo not drawn) [1,2,3,4-Tetrahydronaphthalen-1-ol]	> 90	
COC=O [Methyl formate]	> 8	
COC(=O)c1ccccc1 [Methyl benzoate]	> 90	
Nc1ccccc1C(=O)Oc1ccc2ccccc2c1 [Naphthalen-2-yl 2-aminobenzoate]		CC50 at 24 h (AC50 (uM) modified / 1000, Tox21_110001=Tox21_302560, viability, 1 nM T3 present, 24 h): > 90 µM
CC(C)Nc1nc(Cl)nc(NC(C)C)n1 [Propazine]		CC50 at 24 h (AC50 (uM) modified / 1000, Tox21_110001=Tox21_201394, viability, 1 nM T3 present, 24 h): > 90 µM
C=CCCC(=O)/C=C/C1C(C)=CCCC1(C)C (stereo not drawn) [Allyl Ionone]	80.7	

Compound	CC50 at 24 h (AC50 (uM) modified / 1000) [µM]	other results
CCN(CC)CCOc1ccc(Cc2ccccc2)cc1 [Tesmilifene]	10.9	
O=S(=O)(O)C(F)(F)C(F)(F)C(F)(F)C(F)(F)C(F)(F)C(F)(F)C(F)(F)C(F)(F)F [Lithium perfluorooctanesulfonate]		CC50 at 24 h (AC50 (uM) modified / 1000, Tox21_110001=Tox21_302319, viability, 1 nM T3 present, 24 h): 52.3 µM
c1cc(OCC2CO2)cc(OCC2CO2)c1 (stereo not drawn) [Diglycidyl resorcinol ether]	17.3	
CC(=O)CC(C)(C)C1CCCCC1 [4-Cyclohexyl-4-methyl-pentan-2-one]	> 90	
NNC(=O)CCCCC(=O)NN [Hexanedihydrazide]	> 90	
C[C@@H](O[C@H]1OCCN(Cc2n[nH]c(=O)[nH]2)[C@H]1c1ccc(F)cc1)c1cc(C(F)(F)F)cc(C(F)(F)F)c1 [Aprepitant]	11	
CCCCCc1cc(O)c2c(c1)OC(C)(C)[C@@H]1CCC(C)=C[C@@H]21 [Tetrahydrocannabinol]	10.9	
Nc1nc(NC2CC2)c2ncn([C@H]3C=C[C@@H](CO)C3)c2n1 [Abacavir]	> 50	
Cc1ccc(OP(=O)(Oc2ccc(C)cc2)Oc2ccc(C)cc2)cc1 [Tricresyl phosphate]		CC50 at 24 h (AC50 (uM) modified / 1000, Tox21_110001=Tox21_201546, viability, 1 nM T3 present, 24 h): > 90 µM
CC(C)NC(=O)NC(C)C [1,3-Dipropan-2-ylurea]	> 90	
CC(C)(C)c1ccc(CCOc2ncnc3ccccc23)cc1 [Fenazaquin]	> 90	
C/C=C(\C)C=O [2-Methyl-2-butenal]	> 90	
Nc1ccc2c(c1)Cc1ccccc1-2 [2-Aminofluorene]		CC50 at 24 h (AC50 (uM) modified / 1000, Tox21_110001=Tox21_202971, viability, 1 nM T3 present, 24 h): > 90 µM
c1ccc(CN(CC2=NCCN2)c2ccccc2)cc1 [Antazoline hydrochloride]	21.1	
Nc1ccc(Br)cc1 [4-Bromoaniline]	> 90	
Cc1nc(C)c(Cl)c(O)c1Cl [Clopidol]	> 50	
CCCN[C@H]1CCc2nc(N)sc2C1 [Pramipexole dihydrochloride monohydrate]	> 100	
CCCCCCOC(=O)c1ccccc1C(=O)OCCCCCC [Dihexyl phthalate]	> 90	
OC[C@H]1O[C@@H](O[C@@H]2[C@@H](CO)OC(O)(CO)[C@H]2O)[C@H](O)[C@@H](O)[C@H]1O (mixture of isomers) [Lactulose]	> 50	
CN(C)CC[C@@H](c1ccc(Br)cc1)c1ccccn1 [Dexbrompheniramine maleate]	26.6	
